Test results: ChEMBL document CHEMBL1124539, “17-Desoxy estrogen analogues” (J Med Chem, 1989)
In brackets after ≈: the same amount, converted by molar mass.

Assays:
[1] = species on record: Rattus norvegicus
[2] = biological target: T1, Estrogen receptor (Rattus norvegicus) (UniProt P06211+Q62986)
[3] = biological target: T2, Estrogen receptor (Rattus norvegicus, UniProt P06211+Q62986)
[4] = biological target: T3, Estrogen receptor (Homo sapiens, UniProt Q92731+P03372); assay: Estrogenic effect in rhesus monkey relative to ethynylestradiol; type: functional; details: Macaca mulatta; target entry is the homologue from another species
[5] = system: Rattus norvegicus; assay: In vivo anti-fertility activity in rat; type: functional
[6] = biological target: T1, Estrogen receptor (Rattus norvegicus); remark: listed apart in the source
[7] = biological target: T1, Estrogen receptor (Rattus norvegicus); remark: listed apart in the source
[8] = biological target: T3, Estrogen receptor; assay: Displacement of [3H]estradiol from estrogen receptor in squirrel monkey; type: protein assay
[9] = system: Rattus norvegicus; assay: In vivo antifertility potency in rats at 200 ug/kg/day; type: functional
[10] = system: Rattus norvegicus; assay: In vivo […] activity in rats; type: functional
[11] = biological target: T1, Estrogen receptor (Rattus norvegicus); assay: In vivo uterotrophic effect in immature rats; type: functional, organism-based
[12] = biological target: T2, Estrogen receptor; remark: listed apart in the source
[13] = biological target: T3, Estrogen receptor; details: Macaca mulatta
[14] = biological target: T3, Estrogen receptor; assay: Displacement of [3H]estradiol from estrogen receptor in immature rabbit; type: protein assay, Oryctolagus cuniculus; details: target entry is the homologue from another species
[15] = Selectivity ratio for antifertility and estrogenic potencies in rats; type: functional
[16] = biological target: T2, Estrogen receptor; assay: Displacement of [3H]estradiol from estrogen receptor in mature rat; type: protein assay
[17] = biological target: T2, Estrogen receptor; assay: Displacement of [3H]estradiol from estrogen receptor in immature rat; type: protein assay
[18] = biological target: T1, Estrogen receptor (Rattus norvegicus); assay: In vivo estrogenic receptor potency relative to ethynylestradiol in rat; type: functional, organism-based

COc1ccc2c(c1)CC[C@@H]1[C@@H]2CC[C@]2(C)[C@@H](c3ccccc3)CC[C@@H]12
Antifertility potency [1]: <4
Estrogenic potency [2]: < 0.1

CC[C@H]1CC[C@H]2[C@@H]3CCc4cc(O)ccc4[C@H]3[C@@H](O)C[C@]12C
EC50 [3]: 5.6 µg/mL (≈ 18.6 µM)
Estrogenic effect [4]: < 8
Antifertility activity [5]: 20
Uterotrophic effect [6]: 2
Uterotrophic effect [7]: 0.04
Antifertility potency [1]: 20
EC50 [8]: 22 µg/mL (≈ 73.2 µM)
Estrogenic potency [2]: 0.03

CCC/C=C1\CC[C@H]2[C@@H]3CCc4cc(O)ccc4[C@H]3CC[C@]12C
Antifertility potency [1]: <20
Estrogenic potency [2]: 0.2

C[C@]12CC[C@@H]3c4ccc(O)cc4CC[C@H]3[C@@H]1CC/C2=N\O
Estrogenic potency [2]: 0.28
Antifertility potency [9]: 4

CC12CCC3c4ccc(O)cc4CCC3C1C=CC2C#N (stereo unspecified)
Estrogenic potency [2]: < 0.1
Antifertility potency [9]: <4

C#C[C@]1(O)CC[C@H]2[C@@H]3CCc4cc(O)ccc4[C@H]3[C@@H](O)C[C@@]21C
EC50 [3]: 5.2 µg/mL (≈ 16.6 µM)
Uterotrophic effect [6]: 19
Infertility activity [10]: 100
Uterotrophic effect [7]: 5
Infertility activity [11]: 150
Antifertility potency [1]: 200
EC50 [12]: 16 µg/mL (≈ 51.2 µM)
Estrogenic effect [13]: 500
EC50 [8]: 150 µg/mL (≈ 480 µM)
Estrogenic potency [2]: 120
EC50 [14]: 8 µg/mL (≈ 25.6 µM)

CC[C@H]1CC[C@H]2[C@@H]3CCc4cc(O)ccc4[C@H]3C(=O)C[C@]12C
Antifertility potency [1]: >1000

C=C1C[C@]2(C)[C@@H](CC)CC[C@H]2[C@@H]2CCc3cc(O)ccc3[C@@H]12
Antifertility potency [1]: 400
Estrogenic potency [2]: 64

C[C@]12CC[C@@H]3c4ccc(O)cc4CC[C@H]3[C@@H]1CC/C2=C\C=O
Antifertility potency [1]: 10
Estrogenic potency [2]: 0.05

CC[Si](C#C[C@]1(O)CC[C@H]2[C@@H]3CCc4cc(O)ccc4[C@H]3CC[C@@]21C)(CC)CC
Antifertility potency [1]: 600
Estrogenic potency [2]: 37

CC[Si](CC)(CC)CC[C@H]1CC[C@H]2[C@@H]3CCc4cc(O)ccc4[C@H]3CC[C@]12C
Antifertility potency [1]: 10
Estrogenic potency [2]: 0.27

CC(F)(F)[C@H]1CC[C@H]2[C@@H]3CCc4cc(O)ccc4[C@H]3CC[C@]12C
Antifertility potency [1]: <20
Estrogenic potency [2]: 0.09

[2H]C([2H])=C1CC[C@H]2[C@@H]3CCc4cc(O)ccc4[C@H]3CC[C@]12C
Antifertility potency [1]: 67

C=C1CC[C@H]2[C@@H]3CCc4cc(O)ccc4[C@H]3[C@H](O)C[C@]12C
Antifertility potency [1]: 10
Estrogenic potency [2]: 0.02

C[C@]12CC[C@@H]3c4ccc(O)cc4CC[C@H]3[C@@H]1CC/C2=N\Nc1ccccn1
Antifertility potency [1]: <4
Estrogenic potency [2]: 0.1

CC[C@H]1CC[C@H]2[C@@H]3CCc4cc(O)ccc4[C@H]3CC[C@]12C (stereo in doubt; 8i) [listing 1 of 2 here]
Estrogenic potency [2]: 0.16

CC[C@H]1CC[C@H]2[C@@H]3CCc4cc(O)ccc4[C@H]3CC[C@]12C (stereo in doubt; 8b) [listing 1 of 2 here]
EC50 [3]: 20 µg/mL (≈ 70.3 µM)
Infertility activity [10]: 66
Antifertility potency [1]: 66
EC50 [12]: 8 µg/mL (≈ 28.1 µM)
EC50 [8]: 60 µg/mL (≈ 211 µM)
EC50 [14]: 11 µg/mL (≈ 38.7 µM)

C=C1CC[C@H]2[C@@H]3[C@H](O)Cc4cc(O)ccc4[C@H]3CC[C@]12C
Antifertility potency [1]: <20
Estrogenic potency [2]: 0.1

COc1ccc2c(c1)CCC1C2CCC2(C)C1C=C[C@@]2(O)c1ccccc1 (stereo partly specified)
Estrogenic potency [2]: 0.14
Antifertility potency [9]: <10

C[C@H]1CC[C@H]2[C@@H]3CCc4cc(O)ccc4[C@H]3CC[C@]12C
Antifertility potency [1]: 20
Estrogenic potency [2]: 0.3

CC[C@H]1CC[C@H]2[C@@H]3C(C)Cc4cc(O)ccc4[C@H]3CC[C@]12C (stereo partly specified)
Antifertility potency [1]: <200
Estrogenic potency [2]: 15

C=C1CC[C@H]2[C@@H]3CCc4cc(O)ccc4[C@H]3CC[C@]12C
Antifertility potency [1]: 40
Estrogenic potency [2]: 0.5
Estrogenic potency ([2]; tested as the 2H-labelled form): 0.65
EC50 [14]: 1.5 µg/mL (≈ 5.59 µM)
Ratio [15]: 80
EC50 [16]: 0.8 µg/mL (≈ 2.98 µM)

C=C(C)[C@H]1CC[C@H]2[C@@H]3CCc4cc(O)ccc4[C@H]3CC[C@]12C
Antifertility potency [1]: <10
Estrogenic potency [2]: 0.08

C#C[C@]1(O)CC[C@H]2[C@@H]3[C@H](O)Cc4cc(O)ccc4[C@H]3CC[C@@]21C
EC50 [17]: 18 µg/mL (≈ 57.6 µM)
Antifertility activity [5]: 66
Uterotrophic effect [6]: 10
Uterotrophic effect [7]: 0.1
Antifertility potency [1]: 66
Estrogenic effect [13]: 100
EC50 [8]: 52 µg/mL (≈ 166 µM)
Estrogenic potency [2]: 0.3
EC50 [14]: 36 µg/mL (≈ 115 µM)
EC50 [16]: 6 µg/mL (≈ 19.2 µM)

C/C=C1\CC[C@H]2[C@@H]3CCc4cc(O)ccc4[C@H]3CC[C@]12C
Antifertility potency [1]: 10
Estrogenic potency [2]: 0.3

CC[C@H]1CC[C@H]2[C@@H]3CCc4cc(O)ccc4[C@H]3[C@@](C)(O)C[C@]12C
Antifertility potency [1]: <20
Estrogenic potency [2]: 0.05

C[C@]12CC[C@@H]3c4ccc(O)cc4CC[C@H]3[C@@H]1CC[C@@H]2C#N
Antifertility potency [1]: <10
Estrogenic potency [2]: 0.05

C[C@]12CC[C@@H]3c4ccc(O)cc4CC[C@H]3[C@@H]1CCC2=S
Estrogenic potency [2]: 2.4

C[C@]12CC[C@@H]3c4ccc(O)cc4CC[C@H]3[C@@H]1CC/C2=N\N
Antifertility potency [1]: <10
Estrogenic potency [2]: 1.6

CC[C@H]1CC[C@H]2[C@@H]3CCc4cc(O)ccc4[C@H]3CC[C@]12C (stereo in doubt; 8i) [listing 2 of 2 here]
Antifertility potency [1]: <40

CC[C@H]1CC[C@H]2[C@@H]3CCc4cc(O)ccc4[C@H]3[C@@H](OC)C[C@]12C
Antifertility potency [1]: >2000
Estrogenic potency [2]: 37

C=C[C@H]1CC[C@H]2[C@@H]3CCc4cc(O)ccc4[C@H]3CC[C@]12C
Antifertility potency [1]: 10
Estrogenic potency [2]: 0.26

C=C1CCC2C3C=Cc4cc(O)ccc4C3CCC12C (stereo unspecified)
Antifertility potency [1]: <5
Estrogenic potency [2]: 0.04

CCC[C@H]1CC[C@H]2[C@@H]3CCc4cc(O)ccc4[C@H]3CC[C@]12C
Antifertility potency [1]: 20
Estrogenic potency [2]: 0.8

COc1ccc2c(c1)CC[C@@H]1[C@@H]2CC[C@@]2(C)[C@H]1CC[C@@]2(O)c1ccccc1
Antifertility potency [1]: 10
Estrogenic potency [2]: 0.69

CCCC[C@H]1CC[C@H]2[C@@H]3CCc4cc(O)ccc4[C@H]3CC[C@]12C
Antifertility potency [1]: <10
Estrogenic potency [2]: 0.4

C[C@]12CC[C@@H]3c4ccc(O)cc4CC[C@H]3[C@@H]1CC[C@@H]2CO
Antifertility potency [1]: <110
Estrogenic potency [2]: 0.03

CO/N=C1\CC[C@H]2[C@@H]3CCc4cc(O)ccc4[C@H]3CC[C@]12C
Estrogenic potency [2]: 0.04
Antifertility potency [9]: 4

CC[C@H]1CC[C@H]2[C@@H]3CCc4cc(O)ccc4[C@H]3CC[C@]12C (stereo in doubt; 8b) [listing 2 of 2 here]
Uterotrophic effect [6]: 11
Uterotrophic effect [7]: 1
Estrogenic potency [18]: 1

CC[C@H]1CC[C@H]2[C@@H]3[C@H](O)Cc4cc(O)ccc4[C@H]3CC[C@]12C
Antifertility potency [1]: <10
Estrogenic potency [2]: 0.04

C/C=C1/CC[C@H]2[C@@H]3CCc4cc(O)ccc4[C@H]3[C@H](O)C[C@]12C
Antifertility potency [1]: <7
Estrogenic potency [2]: 0.04

C#C[C@]1(O)CC[C@H]2[C@@H]3CCc4cc(O)ccc4[C@H]3[C@@H](OC)C[C@@]21C [MOXESTROL]
Antifertility potency [1]: 1000
Estrogenic potency [2]: 2000

C#C[C@]1(O)CC[C@H]2[C@@H]3CCc4cc(O)ccc4[C@H]3CC[C@@]21C [ETHINYL ESTRADIOL]
Infertility activity [10]: 100
Antifertility potency [1]: 100

CC(=O)[C@H]1CC[C@H]2[C@@H]3CCc4cc(O)ccc4[C@H]3CC[C@]12C
Antifertility potency [1]: <4
Estrogenic potency [2]: 0.01

CC[Si](C#C[C@H]1CC[C@H]2[C@@H]3CCc4cc(O)ccc4[C@H]3CC[C@]12C)(CC)CC
Antifertility potency [1]: <4
Estrogenic potency [2]: 0.04

C#C[C@H]1CC[C@H]2[C@@H]3CCc4cc(O)ccc4[C@H]3CC[C@]12C
Antifertility potency [1]: <10
Estrogenic potency [2]: 0.07

CC/C=C1\CC[C@H]2[C@@H]3CCc4cc(O)ccc4[C@H]3CC[C@]12C
Antifertility potency [1]: <20
Estrogenic potency [2]: 0.4
